The values below come from the supplement of paper PMC10307832.

Assay in all cases: relative viability (nuclei count vs DMSO), 5 days (fraction); higher = more cells survive
Compound in experiment [1]: CCC1=CN=CN=C1N2CCN(CC2)CC3=NC4=C(N3)C=C(C=C4)C(F)(F)F + Nc1ncn([C@H]2C[C@H](O)[C@@H](CO)O2)c(=O)n1 [Decitabine] (partner 2 µM)
Summed up: (§1)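 Dosing by pin tool came one day after lung cancer cell lines were seeded in 1536-well plates, using either one drug or a fixed anchor-drug dose plus five library-drug doses (not always all listed) in √10 steps. After 5 days, nuclei were counted on 4× images. Relative viability is treated-well nuclei count divided by vehicle-well nuclei count, and values are medians of duplicate plates.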

Compound in experiment [2]: CCC1=CN=CN=C1N2CCN(CC2)CC3=NC4=C(N3)C=C(C=C4)C(F)(F)F + Nc1nc2[nH]cc(CCc3ccc(C(=O)N[C@@H](CCC(=O)O)C(=O)O)cc3)c2c(=O)[nH]1 [Pemetrexed] (partner 0.2 µM)
The gist of the method:
as §1

Compound in experiment [3]: CCC1=CN=CN=C1N2CCN(CC2)CC3=NC4=C(N3)C=C(C=C4)C(F)(F)F + NC(=O)Nc1cc(-c2cccc(F)c2)sc1C(=O)N[C@H]1CCCNC1 [AZD7762] (partner 0.2 µM)
Summed up:
as §1

Compound in experiment [4]: N=C1NC(=O)/C(=C/c2ccc(O)cc2)S1 [Mirin] + CC(=O)Nc1cccc(-n2c(=O)n(C3CC3)c(=O)c3c(Nc4ccc(I)cc4F)n(C)c(=O)c(C)c32)c1 [Trametinib] (partner 0.02 µM)
The gist of the method: as §1

For 201T, the relative viability was found to be 0.823 in experiment [1] (first compound 0.04 µM); 0.813 in experiment [1] (first compound 0.1265 µM); 0.879 in experiment [1] (first compound 0.4 µM); 0.869 in experiment [1] (first compound 1.265 µM); 0.819 in experiment [1] (first compound 4 µM); 0.274 in experiment [2] (first compound 0.04 µM). The relative viability is 0.312 in experiment [2] (first compound 0.1265 µM); 0.297 in experiment [2] (first compound 0.4 µM); 0.322 in experiment [2] (first compound 1.265 µM); 0.375 in experiment [2] (first compound 4 µM); 0.64 in experiment [3] (first compound 0.04 µM); 0.581 in experiment [3] (first compound 0.1265 µM). Besides, the relative viability in experiment [3] (first compound 0.4 µM) was 0.511; in experiment [3] (first compound 1.265 µM), 0.585; in experiment [3] (first compound 4 µM), 0.681; in experiment [4] (first compound 0.25 µM), 0.739; in experiment [4] (first compound 0.7906 µM), 0.74; in experiment [4] (first compound 2.5 µM), 0.77. In addition, the relative viability in experiment [4] (first compound 7.906 µM) came out at 0.796; in experiment [4] (first compound 25 µM) it was 0.857.
Regarding A549, the relative viability in experiment [1] (first compound 0.04 µM) is 0.277; in experiment [1] (first compound 0.1265 µM), 0.121; in experiment [1] (first compound 0.4 µM) it was 0.237; in experiment [1] (first compound 1.265 µM), 0.265; in experiment [1] (first compound 4 µM) it was 0.247.
A-427: the relative viability in experiment [1] (first compound 0.04 µM) was determined as 0.55; in experiment [1] (first compound 0.1265 µM), 0.548; in experiment [1] (first compound 0.4 µM), 0.556; in experiment [1] (first compound 1.265 µM) it was 0.535; in experiment [1] (first compound 4 µM) it was 0.599; in experiment [2] (first compound 0.04 µM), 0.761. Besides, the relative viability came out at 0.934 in experiment [2] (first compound 0.1265 µM); 0.873 in experiment [2] (first compound 0.4 µM); 0.835 in experiment [2] (first compound 1.265 µM); 0.898 in experiment [2] (first compound 4 µM); 0.735 in experiment [3] (first compound 0.04 µM); 0.788 in experiment [3] (first compound 0.1265 µM). Moreover, the relative viability in experiment [3] (first compound 0.4 µM) came to 0.631; in experiment [3] (first compound 1.265 µM), 0.641; in experiment [3] (first compound 4 µM) it was 0.785; in experiment [4] (first compound 0.25 µM), 0.734; in experiment [4] (first compound 0.7906 µM), 0.647; in experiment [4] (first compound 2.5 µM) it was 0.718. The relative viability in experiment [4] (first compound 7.906 µM) is 0.677; in experiment [4] (first compound 25 µM), 0.706.
With ABC-1, the relative viability in experiment [1] (first compound 0.4 µM) was found to be 1.04; in experiment [1] (first compound 1.265 µM) it was 0.84; in experiment [1] (first compound 4 µM), 0.887; in experiment [3] (first compound 0.04 µM), 0.766; in experiment [3] (first compound 0.1265 µM), 0.906; in experiment [3] (first compound 0.4 µM) it was 0.702. In addition, the figures for the relative viability in experiment [3] (first compound 1.265 µM) and in experiment [3] (first compound 4 µM) were 0.956 and 0.869, respectively.
Regarding BEN, the relative viability in experiment [1] (first compound 0.04 µM) is 0.638; in experiment [1] (first compound 0.1265 µM), 0.61; in experiment [1] (first compound 0.4 µM), 0.703; in experiment [1] (first compound 1.265 µM), 0.548; in experiment [1] (first compound 4 µM), 0.508; in experiment [2] (first compound 0.04 µM) it was 0.605. Besides, the relative viability in experiment [2] (first compound 0.1265 µM) was 0.651; in experiment [2] (first compound 0.4 µM), 0.667; in experiment [2] (first compound 1.265 µM), 0.551; in experiment [2] (first compound 4 µM) it was 0.676; in experiment [3] (first compound 0.04 µM), 0.573; in experiment [3] (first compound 0.1265 µM), 0.57. For the same cell line, the relative viability in experiment [3] (first compound 0.4 µM) turned out to be 0.614; in experiment [3] (first compound 1.265 µM), 0.611; in experiment [3] (first compound 4 µM) it was 0.578; in experiment [4] (first compound 0.25 µM) it was 0.942; in experiment [4] (first compound 0.7906 µM) it was 1.01; in experiment [4] (first compound 2.5 µM) it was 1.16. Moreover, the relative viability in experiment [4] (first compound 7.906 µM) stood at 0.825; in experiment [4] (first compound 25 µM), 0.591.
Take CAL-12T: the relative viability in experiment [2] (first compound 0.04 µM) came out at 1.3; in experiment [2] (first compound 0.1265 µM) it was 1.18; in experiment [2] (first compound 0.4 µM), 1.19; in experiment [2] (first compound 1.265 µM), 1.24; in experiment [2] (first compound 4 µM) it was 1.18; in experiment [3] (first compound 0.04 µM), 0.501. In addition, the relative viability came out at 0.6 in experiment [3] (first compound 0.1265 µM); 0.609 in experiment [3] (first compound 0.4 µM); 0.679 in experiment [3] (first compound 1.265 µM); 0.604 in experiment [3] (first compound 4 µM); 0.336 in experiment [4] (first compound 0.25 µM); 0.373 in experiment [4] (first compound 0.7906 µM). Also, the relative viability turned out to be 0.405 in experiment [4] (first compound 2.5 µM), 0.357 in experiment [4] (first compound 7.906 µM) and 0.32 in experiment [4] (first compound 25 µM).
Regarding COR-L23, the relative viability in experiment [1] (first compound 0.04 µM) worked out at 0.438; in experiment [1] (first compound 0.1265 µM), 0.378; in experiment [1] (first compound 0.4 µM), 0.406; in experiment [1] (first compound 1.265 µM), 0.383; in experiment [1] (first compound 4 µM), 0.499; in experiment [2] (first compound 0.04 µM) it was 0.208. For the same cell line, the relative viability turned out to be 0.199 in experiment [2] (first compound 0.1265 µM); 0.189 in experiment [2] (first compound 0.4 µM); 0.198 in experiment [2] (first compound 1.265 µM); 0.206 in experiment [2] (first compound 4 µM); 0.559 in experiment [4] (first compound 0.25 µM); 0.522 in experiment [4] (first compound 0.7906 µM). For the same cell line, the relative viability in experiment [4] (first compound 2.5 µM) was determined as 0.56; in experiment [4] (first compound 7.906 µM), 0.345; in experiment [4] (first compound 25 µM), 0.652.
With COR-L 105, the relative viability stood at 0.665 in experiment [1] (first compound 0.04 µM); 0.652 in experiment [1] (first compound 0.1265 µM); 0.698 in experiment [1] (first compound 0.4 µM); 0.541 in experiment [1] (first compound 1.265 µM); 0.669 in experiment [1] (first compound 4 µM); 1.07 in experiment [2] (first compound 0.04 µM). The relative viability in experiment [2] (first compound 0.1265 µM) turned out to be 1.12; in experiment [2] (first compound 0.4 µM), 1.28; in experiment [2] (first compound 1.265 µM), 1.01; in experiment [2] (first compound 4 µM) it was 1.03; in experiment [4] (first compound 0.25 µM) it was 0.428; in experiment [4] (first compound 0.7906 µM), 0.482. Further, the relative viability is 0.431 in experiment [4] (first compound 2.5 µM), 0.449 in experiment [4] (first compound 7.906 µM) and 0.451 in experiment [4] (first compound 25 µM).
Turning to ChaGo-K-1, the relative viability came to 0.554 in experiment [1] (first compound 0.04 µM); 0.471 in experiment [1] (first compound 0.1265 µM); 0.526 in experiment [1] (first compound 0.4 µM); 0.501 in experiment [1] (first compound 1.265 µM); 0.488 in experiment [1] (first compound 4 µM); 0.253 in experiment [2] (first compound 0.04 µM). In addition, the relative viability was found to be 0.261 in experiment [2] (first compound 0.1265 µM); 0.275 in experiment [2] (first compound 0.4 µM); 0.258 in experiment [2] (first compound 1.265 µM); 0.262 in experiment [2] (first compound 4 µM); 0.835 in experiment [3] (first compound 0.04 µM); 0.836 in experiment [3] (first compound 0.1265 µM). For the same cell line, the relative viability in experiment [3] (first compound 0.4 µM) came to 0.881; in experiment [3] (first compound 1.265 µM) it was 0.816; in experiment [3] (first compound 4 µM), 0.961; in experiment [4] (first compound 0.25 µM) it was 0.833; in experiment [4] (first compound 0.7906 µM), 0.836; in experiment [4] (first compound 2.5 µM) it was 0.94. The relative viability was 0.756 in experiment [4] (first compound 7.906 µM) and 0.677 in experiment [4] (first compound 25 µM).
